Results: patent US12370214B2, “Combined pharmaceutical formulation comprising drug-containing liposome composition and platinum preparation” (FUJIFILM Corporation, priority 2018, dated 2025)

Columns and labels:
A2780 cells [1] = test: Drug efficacy test with combined use of platinum preparation in tumor-bearing mouse model with subcutaneous transplantation of A2780 (carboplatin, Lipo, paclitaxel); format: in vivo, mice
Experimental: A platinum preparation (hereinafter, also referred to as carboplatin), the topotecan-containing liposome composition according to the embodiment of the present invention, and paclitaxel were used as test substances. Physiological saline (available from Otsuka Pharmaceutical Factory, Inc., hereinafter, also referred to as carboplatin solvent) was used for the dilution of carboplatin. A 10 mM histidine/9.4% sucrose solution (hereinafter, also referred to as Lipo solvent) was used for the dilution of Lipo. 12.5% CREMOPHOR (available from Sigma-Aldrich, LLC)/12.5% ethanol (available from Shonan Wako Junyaku K.K.)/75% physiological saline (available from Otsuka Pharmaceutical Factory, Inc.) was used for the dilution of paclitaxel.
5×10^6 A2780 cells, which is a human ovarian cancer cell line, were subcutaneously transplanted into the flank of female BALB/cAJcl-nu/nu mice to form subcutaneous tumors. From 7 days after transplantation, mice were drug treated with carboplatin alone, Lipo of the present invention alone, a combination of carboplatin and Lipo, and a combination of carboplatin and paclitaxel, and the effect of the drug treatment on the survival time of the mice was evaluated. In a case where a volume of tumor reached 2,000 mm^3 or in a case where significant deterioration of the condition was observed, the animals were euthanized and considered dead. […]

A2780 cells [2] = test: Drug efficacy test with combined use of platinum preparation in tumor-bearing mouse model with subcutaneous transplantation of A2780 (carboplatin, Lipo, topotecan); format: in vivo, mice; details: for Median survival time: from start of drug administration, carboplatin 80 mg/kg ip, Lipo 0.5 mg/kg tail vein once a week x 2, topotecan 0.5 mg/kg tail vein once a day x 5, carboplatin once in the topotecan combination; for Number of animal deaths or euthanasias due to deterioration of condition: of 8 animals in group, same doses and schedules as median survival
From the text: A platinum preparation (hereinafter, also referred to as carboplatin), the topotecan-containing liposome composition according to the embodiment of the present invention, and topotecan were used as test substances. Physiological saline (available from Otsuka Pharmaceutical Factory, Inc., hereinafter, also referred to as carboplatin solvent) was used for the dilution of carboplatin and topotecan. A 5% Otsuka glucose solution (available from Otsuka Pharmaceutical Factory, Inc., hereinafter, also referred to as Lipo solvent) was used for the dilution of Lipo.
5×10^6 A2780 cells, which is a human ovarian cancer cell line, were subcutaneously transplanted into the flank of female BALB/cAJcl-nu/nu mice to form subcutaneous tumors. From 7 days after transplantation, mice were drug treated with carboplatin alone, Lipo of the present invention alone, topotecan alone, a combination of carboplatin and Lipo, and a combination of carboplatin and topotecan, and the effect of the drug treatment on the survival time of the mice was evaluated. In a case where a volume of tumor reached 2,000 mm^3 or in a case where significant deterioration of the condition was observed, the animals were euthanized and considered dead.
In the combination group of a carboplatin solvent and a Lipo solvent, the carboplatin solvent was administered by intraperitoneal administration, and the Lipo solvent was administered by tail vein administration once a week for 2 weeks. The carboplatin alone group was administered by intraperitoneal administration once a week for 2 weeks. The Lipo alone group was administered by tail vein administration once a week for 2 weeks. In the combination group of carboplatin and Lipo, carboplatin was administered by intraperitoneal administration once a week for 2 weeks, and Lipo was administered by tail vein administration once a week for 2 weeks. In the combination group of carboplatin and topotecan, carboplatin was administered as a single dose by intraperitoneal administration, and topotecan was administered by tail vein administration once a day for 5 days.
Groups 1 to 4 and 6 correspond to Comparative Examples, and Group 5 corresponds to Example. In Table 5, “Lipo” represents the topotecan-containing liposome composition according to the embodiment of the present invention, “Abdomen” represents intraperitoneal administration, “Tail” represents tail vein administration, “Once a week×2” represents once a week for 2 weeks, “Once a day×5” represents administration once a day for 5 days, and “Once” represents administration once during the test period.

SMILES | Median survival time (A2780 cells [1]; from start of drug administration, carboplatin 80 mg/kg ip, Lipo 0.5 mg/kg tail vein, paclitaxel 20 mg/kg tail vein, single agents once a week x 2, combinations once) [days] | Number of animal deaths or euthanasias due to deterioration of condition (A2780 cells [1]; of 8 animals in group, same doses and schedules as median survival) | Median survival time (A2780 cells [2]) [days] | Number of animal deaths or euthanasias due to deterioration of condition (A2780 cells [2])
N.N.O=C([O-])C1(C(=O)[O-])CCC1.[Pt+2] [Carboplatin, carboplatin] | 10 | 1 | 9.1 | 0
CC[C@@]1(O)C(=O)OCc2c1cc1n(c2=O)Cc2cc3c(CN(C)C)c(O)ccc3nc2-1 [Topotecan, topotecan] | – | – | 12.9 | 0
